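These data come from cells grown in 96-well plates and exposed to compound for 48 hours at five concentrations. GI50 = concentration required for 50% inhibition of growth. TGI marks complete inhibition of growth.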
Columns and labels:
Assay in all cases: NCI anticancer screen, dose series, 48 h
[1] = tested on: HS 578T breast
[2] = tested on: SW-620 colon
[3] = tested on: HL-60(TB) leukemia
[4] = tested on: K-562 leukemia
[5] = tested on: HOP-92 NSCLC
[6] = tested on: SK-MEL-5 melanoma
[7] = tested on: SF-539 CNS
[8] = tested on: SN12C renal
[9] = tested on: CAKI-1 renal
[10] = tested on: DU-145 prostate
[11] = tested on: A549 NSCLC
[12] = tested on: HCT-15 colon
[13] = tested on: OVCAR-4 ovarian
[14] = tested on: RPMI-8226 leukemia
[15] = tested on: ACHN renal
[16] = tested on: MDA-MB-231 breast
[17] = tested on: UO-31 renal
[18] = tested on: T-47D breast
[19] = tested on: MCF7 breast
[20] = tested on: LOX IMVI melanoma
[21] = tested on: OVCAR-5 ovarian
[22] = tested on: HCC-2998 colon
[23] = tested on: EKVX NSCLC
[24] = tested on: M14 melanoma
[25] = tested on: TK-10 renal
[26] = tested on: NCI-H522 lung
[27] = tested on: CCRF-CEM leukemia
[28] = tested on: SNB-75 CNS
[29] = tested on: OVCAR-3 ovarian
[30] = tested on: MALME-3M melanoma
[31] = tested on: SR leukemia
[32] = tested on: SK-OV-3 ovarian
[33] = tested on: IGROV1 ovarian
[34] = tested on: KM12 colon
[35] = tested on: NCI-H23 lung
[36] = tested on: SNB-19 CNS
[37] = tested on: HCT-116 colon
[38] = tested on: 786-0 renal
[39] = tested on: BT-549 breast
[40] = tested on: NCI/ADR-RES ovarian
[41] = tested on: SK-MEL-28 melanoma
[42] = tested on: OVCAR-8 ovarian
[43] = tested on: MOLT-4 leukemia
[44] = tested on: UACC-257 melanoma
[45] = tested on: NCI-H226 lung
[46] = tested on: NCI-H460 lung
[47] = tested on: HOP-62 NSCLC
[48] = tested on: COLO 205 colon
[49] = tested on: SF-268 CNS
[50] = tested on: SF-295 CNS
[51] = tested on: SK-MEL-2 melanoma
[52] = tested on: A498 renal
[53] = tested on: UACC-62 melanoma
[54] = tested on: RXF 393 renal
[55] = tested on: MDA-MB-435
[56] = tested on: U251 CNS
[57] = tested on: PC-3 prostate
[58] = tested on: HT29 colon

Fc1cnc(NC2CC2)nc1-c1cnc2ccc(N3CCOCC3)cn12 showed a GI50 [1] of 265 nM, a TGI [1] of 2460 nM and a GI50 [2] of 292 nM. It also gave a TGI [2] of 12400 nM, a GI50 [3] of 304 nM and a TGI [3] of 1010 nM. For the same compound, the GI50 [4] was 441 nM, the TGI [4] was over 100000 nM and the GI50 [5] was 116 nM. The TGI [5] was 461 nM, the GI50 [6] was 231 nM and the TGI [6] was 706 nM. It also gave a GI50 [7] of 164 nM, a TGI [7] of 538 nM and a GI50 [8] of 242 nM. The TGI [8] was 5570 nM, the GI50 [9] was 122 nM and the TGI [9] was 12500 nM. For the same compound, the GI50 [10] was 323 nM, the TGI [10] was over 60900 nM and the GI50 [11] was 292 nM. It also gave a TGI [11] of over 64300 nM, a GI50 [12] of 266 nM and a TGI [12] of 14500 nM. For the same compound, the GI50 [13] was 306 nM, the TGI [13] was 3060 nM and the GI50 [14] was 292 nM. For the same compound, the TGI [14] was 1710 nM, the GI50 [15] was 160 nM and the TGI [15] was 10600 nM. It also gave a GI50 [16] of 203 nM, a TGI [16] of 1680 nM and a GI50 [17] of 282 nM. For the same compound, the TGI [17] was 11100 nM, the GI50 [18] was 299 nM and the TGI [18] was 18600 nM. For the same compound, the GI50 [19] was 272 nM, the TGI [19] was 6910 nM and the GI50 [20] was 90 nM. It also gave a TGI [20] of 12500 nM, a GI50 [21] of 188 nM and a TGI [21] of 3130 nM. It also gave a GI50 [22] of 305 nM, a TGI [22] of 2620 nM and a GI50 [23] of 297 nM. It also gave a TGI [23] of 3460 nM, a GI50 [24] of 279 nM and a TGI [24] of 1010 nM. For the same compound, the GI50 [25] was 357 nM, the TGI [25] was 54200 nM and the GI50 [26] was 374 nM. For the same compound, the TGI [26] was 6110 nM, the GI50 [27] was 325 nM and the TGI [27] was over 100000 nM. It also gave a GI50 [28] of 158 nM, a TGI [28] of 475 nM and a GI50 [29] of 258 nM. For the same compound, the TGI [29] was over 32600 nM, the GI50 [30] was 340 nM and the TGI [30] was 1060 nM. For the same compound, the GI50 [31] was 128 nM, the GI50 [32] was 781 nM and the TGI [32] was 81900 nM. For the same compound, the GI50 [33] was 268 nM, the TGI [33] was 17500 nM and the GI50 [34] was 237 nM. For the same compound, the TGI [34] was 3970 nM, the GI50 [35] was 242 nM and the TGI [35] was 957 nM. For the same compound, the GI50 [36] was 290 nM, the TGI [36] was 17700 nM and the GI50 [37] was 160 nM. For the same compound, the TGI [37] was over 56300 nM, the GI50 [38] was 322 nM and the TGI [38] was 22800 nM. For the same compound, the GI50 [39] was 230 nM, the TGI [39] was 3350 nM and the GI50 [40] was 276 nM. The TGI [40] was 4700 nM, the GI50 [41] was 252 nM and the TGI [41] was 1270 nM. For the same compound, the GI50 [42] was 284 nM, the TGI [42] was over 73900 nM and the GI50 [43] was 346 nM. The GI50 [44] was 380 nM, the TGI [44] was 11200 nM and the GI50 [45] was 201 nM. For the same compound, the TGI [45] was 1390 nM, the GI50 [46] was 291 nM and the TGI [46] was 10200 nM. For the same compound, the GI50 [47] was 306 nM, the TGI [47] was over 44800 nM and the GI50 [48] was 144 nM. The TGI [48] was 428 nM, the GI50 [49] was 296 nM and the TGI [49] was 6850 nM. It also gave a GI50 [50] of 299 nM, a TGI [50] of 12100 nM and a GI50 [51] of 218 nM. It also gave a TGI [51] of 641 nM, a GI50 [52] of 168 nM and a TGI [52] of 430 nM. For the same compound, the GI50 [53] was 200 nM, the TGI [53] was 699 nM and the GI50 [54] was 93.2 nM. The TGI [54] was 303 nM, the GI50 [55] was 272 nM and the TGI [55] was 992 nM. The GI50 [56] was 271 nM, the TGI [56] was over 42400 nM and the GI50 [57] was 276 nM. For the same compound, the TGI [57] was 8600 nM, the GI50 [58] was 251 nM and the TGI [58] was over 58300 nM.
